Measurements as given in PMC12449377, “Psychedelic-like effects induced by 2,5-dimethoxy-4-iodoamphetamine, lysergic acid diethylamide, and psilocybin in male and female C57BL/6J mice” (Psychopharmacology, 2025).
pKi: −log10 of the molar value. Like-named read-outs stand apart in the source and are kept apart here.

Tests used:
C57BL/6J mice [1] = experiment: Locomotor activity (distance traveled) in mice; assay type: in vivo, mouse; details: for Locomotor Activity (cm) Mean: 30 min
Experimental: (§1) At 1–2 weeks prior to the beginning of experiments, mice were habituated to handling and receiving s.c. saline injections. On the day of an experiment, mice were acclimated to the testing room in their home cage for at least 30 min prior to the start of sessions. Prior to each session, mice were weighed, and resting body temperatures were recorded. Mice were then placed into experimental chambers for acclimation. Behavioral testing was carried out in TruScan mouse locomotor arenas equipped with photobeam arrays (Coulbourn Instruments, Holliston, MA, USA) that were modified with cylindrical inserts and transparent flooring to aid in semi-automated HTR detection as previously described (Glatfelter et al. [2022a]). After 5 min of acclimation, basal body temperature was recorded followed by s.c. injection of drug or vehicle, and mice were returned to test chambers for 30 min. Dose ranges for each drug were 0.03–10 mg/kg for DOI, 0.03–10 mg/kg for psilocybin, and 0.003–1 mg/kg for LSD. Mice were randomly assigned to specific doses at the beginning of the experiment and received different doses at each session.
(§2) During each session, locomotor activity was quantified via photobeam tracking of distance traveled in cm. Overhead GoPro Hero Black 7 video recordings (120 fps, 960p resolution) were analyzed using a commercially available software package from Clever Sys Inc. (Reston, VA, USA) for the measurement of HTR activity. Mouse body temperature was also collected post-session to calculate temperature change values (basal - post session temperature reading).
(§3) Concentration-response data were fit to a single site non-linear regression model. For the HTR studies, potencies were determined from the ascending limb of the dose-response curves using ED50 potency values from [agonist] vs. response (variable slope, four parameter) least squares fit non-linear regression analyses, whereas efficacy was defined by the top output parameter or Emax from the aforementioned analyses. […] Best-fit values for ED50 and Emax from non-linear regression analyses were compared by extra sum-of-squares F tests. Mean effects for each behavioral endpoint were compared using two-way ANOVA (dose x sex), followed by Sidak’s multiple comparisons post-hoc test. Mean effects for pooled mouse behavioral data were compared via Welch’s ANOVA with Dunnett’s T3 post-hoc test, comparing all doses to saline vehicle controls (0 mg/kg). Alpha was set to 0.05 for all analyses.

5-HT2A = molecular target: T1, 5-HT2A (Mus musculus, UniProt P35363); experiment: Competition binding vs [3H]M100907 in mouse brain membranes
T1 construct: tissue BioIVT; host or cells: whole C57BL/6 mouse brain minus cerebellum, male and female
T1 sequence (P35363 whole entry): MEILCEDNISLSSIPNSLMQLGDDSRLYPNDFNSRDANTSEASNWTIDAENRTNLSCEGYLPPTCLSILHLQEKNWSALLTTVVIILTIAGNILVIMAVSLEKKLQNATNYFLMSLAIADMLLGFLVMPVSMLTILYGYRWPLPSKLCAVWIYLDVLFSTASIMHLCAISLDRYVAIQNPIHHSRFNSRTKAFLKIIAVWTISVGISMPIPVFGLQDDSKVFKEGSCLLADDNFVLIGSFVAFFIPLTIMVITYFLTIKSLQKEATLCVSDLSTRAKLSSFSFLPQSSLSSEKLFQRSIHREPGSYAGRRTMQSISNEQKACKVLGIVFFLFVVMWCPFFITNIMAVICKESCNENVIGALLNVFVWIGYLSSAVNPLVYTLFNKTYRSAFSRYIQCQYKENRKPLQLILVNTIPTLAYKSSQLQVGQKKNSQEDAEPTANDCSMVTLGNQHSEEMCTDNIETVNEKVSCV
Experimental: (§4) Competition binding studies were conducted in mouse brain tissue as previously described (Glatfelter et al. [2022b]). Briefly, the experiments utilized membranes prepared from whole C57BL/6 mouse brain minus cerebellum (BioIVT, Westbury, NY, USA). […] We assessed the ability of test drugs to compete for [^3H]M100907 binding at 5-HT2A (1 nM) or [^3H]8-OH-DPAT binding at 5-HT1A (0.5 nM). Radioligands were purchased commercially (PerkinElmer, Boston, MA, USA). Nonspecific binding was determined using 10 µM ketanserin for 5-HT2A and serotonin for 5-HT1A. All data represent 3 experiments performed in triplicate.
as §3

5-HT1A = molecular target: T2, 5-HT1A (Mus musculus, UniProt Q64264); experiment: Competition binding vs [3H]8-OH-DPAT in mouse brain membranes
T2 construct: tissue BioIVT; host or cells: whole C57BL/6 mouse brain minus cerebellum, male and female
T2 sequence (Q64264 1-421): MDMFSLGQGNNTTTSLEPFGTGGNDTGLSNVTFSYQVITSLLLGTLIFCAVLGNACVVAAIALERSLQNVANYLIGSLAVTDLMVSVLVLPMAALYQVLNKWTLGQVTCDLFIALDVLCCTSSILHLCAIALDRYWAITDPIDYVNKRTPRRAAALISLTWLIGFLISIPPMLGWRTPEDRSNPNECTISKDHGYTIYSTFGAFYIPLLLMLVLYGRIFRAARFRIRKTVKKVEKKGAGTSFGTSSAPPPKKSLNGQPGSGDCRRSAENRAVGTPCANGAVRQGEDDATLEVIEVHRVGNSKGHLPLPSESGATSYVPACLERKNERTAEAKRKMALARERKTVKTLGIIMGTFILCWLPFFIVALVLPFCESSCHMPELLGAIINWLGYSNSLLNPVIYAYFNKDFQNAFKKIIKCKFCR
Experimental: as §4, §3

C57BL/6J mice [2] = experiment: Head twitch response (HTR) in mice; assay type: in vivo, mouse; details: for HTR (total events) Mean: 30 min; for ED50: Mus musculus, sc
Experimental: Each drug was tested using groups of 12 mice per sex (i.e., 24 total mice per drug). Experimental sessions were conducted once every 1–2 weeks for 2 months per drug. Experimental sessions were spaced apart by at least 1 week to minimize the potential for tolerance to drug effects (Canal and Morgan [2012]; Darmani et al. [1990a]; de la Fuente Revenga et al. [2022]). Experiments were conducted during the light phase (1300–1700 local time; lights on = 0700 in a 12/12 light/dark cycle).
as §1, §2, §3

[3] = male and female mouse brain membranes, summary statement

SMILES: COc1cc(CC(C)N)c(OC)cc1I (stereo not drawn) [DOI, 2,5-dimethoxy-4-iodoamphetamine]
- Locomotor Activity (cm) Mean (C57BL/6J mice [1]; 0.03 mg/kg s.c., female mice): 2149 cm
- Locomotor Activity (cm) Mean (C57BL/6J mice [1]; 0.03 mg/kg s.c., male mice): 2753 cm
- Locomotor Activity (cm) Mean (C57BL/6J mice [1]; 0.03 mg/kg s.c., pooled sexes): 2408 cm
- Locomotor Activity (cm) Mean (C57BL/6J mice [1]; 0.1 mg/kg s.c., female mice): 2292 cm
- Locomotor Activity (cm) Mean (C57BL/6J mice [1]; 0.1 mg/kg s.c., male mice): 3045 cm
- Locomotor Activity (cm) Mean (C57BL/6J mice [1]; 0.1 mg/kg s.c., pooled sexes): 2606 cm
- Locomotor activity effect (C57BL/6J mice [1]; 1 mg/kg s.c.): marginal increase
- Locomotor Activity (cm) Mean (C57BL/6J mice [1]; 1 mg/kg s.c., female mice): 3246.7 cm
- Locomotor Activity (cm) Mean (C57BL/6J mice [1]; 1 mg/kg s.c., male mice): 4033.6 cm
- Locomotor Activity (cm) Mean (C57BL/6J mice [1]; 1 mg/kg s.c., pooled sexes): 3640 cm
- Locomotor Activity (cm) Mean (C57BL/6J mice [1]; 3 mg/kg s.c., female mice): 3192.6 cm
- Locomotor Activity (cm) Mean (C57BL/6J mice [1]; 3 mg/kg s.c., male mice): 3289.3 cm
- Locomotor Activity (cm) Mean (C57BL/6J mice [1]; 3 mg/kg s.c., pooled sexes): 3241 cm
- Locomotor Activity (cm) Mean (C57BL/6J mice [1]; 10 mg/kg s.c., female mice): 2459.7 cm
- Locomotor Activity (cm) Mean (C57BL/6J mice [1]; 10 mg/kg s.c., male mice): 2529.1 cm
- Locomotor Activity (cm) Mean (C57BL/6J mice [1]; 10 mg/kg s.c., pooled sexes): 2492 cm
- pKi (5-HT2A; [3H]M100907 Binding ♀ m5-HT2A Ki, female mouse brain membranes): 7.96
- pKi (5-HT2A; [3H]M100907 Binding ♂ m5-HT2A Ki, male mouse brain membranes): 7.89
- 5-HT2A binding affinity (Ki), males and females (5-HT2A; [3]): low nanomolar affinity
- pKi (5-HT1A; [3H]8-OH-DPAT Binding ♀ m5-HT1A Ki, female mouse brain membranes): 5.58
- pKi (5-HT1A; [3H]8-OH-DPAT Binding ♂ m5-HT1A Ki, male mouse brain membranes): 5.54
- 5-HT1A binding affinity (Ki), males and females (5-HT1A; [3]): µM affinity
- HTR (total events) Mean (C57BL/6J mice [2]; 0.03 mg/kg s.c., female mice): 12.5 total events
- HTR (total events) Mean (C57BL/6J mice [2]; 0.03 mg/kg s.c., male mice): 8.8 total events
- HTR (total events) Mean (C57BL/6J mice [2]; 0.03 mg/kg s.c., pooled sexes): 10.7 total events
- HTR (total events) Mean (C57BL/6J mice [2]; 0.1 mg/kg s.c., female mice): 19.7 total events
- HTR (total events) Mean (C57BL/6J mice [2]; 0.1 mg/kg s.c., male mice): 22.4 total events
- HTR (total events) Mean (C57BL/6J mice [2]; 0.1 mg/kg s.c., pooled sexes): 20.8 total events
- HTR (total events) Mean (C57BL/6J mice [2]; 0.3 mg/kg s.c., female mice): 59.0 total events
- HTR (total events) Mean (C57BL/6J mice [2]; 0.3 mg/kg s.c., male mice): 57.3 total events
- HTR (total events) Mean (C57BL/6J mice [2]; 0.3 mg/kg s.c., pooled sexes): 58.2 total events
- HTR (total events) Mean (C57BL/6J mice [2]; 1 mg/kg s.c., female mice): 91.2 total events
- HTR (total events) Mean (C57BL/6J mice [2]; 1 mg/kg s.c., male mice): 89.7 total events
- HTR (total events) Mean (C57BL/6J mice [2]; 1 mg/kg s.c., pooled sexes): 90.4 total events
- HTR (total events) Mean (C57BL/6J mice [2]; 3 mg/kg s.c., female mice): 108.8 total events
- HTR (total events) Mean (C57BL/6J mice [2]; 3 mg/kg s.c., male mice): 106.8 total events
- HTR (total events) Mean (C57BL/6J mice [2]; 3 mg/kg s.c., pooled sexes): 107.8 total events
- HTR (total events) Mean (C57BL/6J mice [2]; 10 mg/kg s.c., female mice): 148.7 total events
- HTR (total events) Mean (C57BL/6J mice [2]; 10 mg/kg s.c., male mice): 103.3 total events
- HTR (total events) Mean (C57BL/6J mice [2]; 10 mg/kg s.c., pooled sexes): 126.0 total events
- ED50 (C57BL/6J mice [2]; female mice, ascending limb of dose-response curve, read-out: HTR ♀ ED50 (95% CI)): 0.52 mg/kg
- ED50 (C57BL/6J mice [2]; male mice, ascending limb of dose-response curve, read-out: HTR ♂ ED50 (95% CI)): 0.3 mg/kg
- ED50 (C57BL/6J mice [2]; pooled male and female mice, read-out: HTR ♂+♀ ED50 (95% CI)): 0.33 mg/kg
- Duration of HTR effect in the session (C57BL/6J mice [2]; peak/active doses, 30 min session): lasted throughout the entire 30 min session
- Time of peak effects on HTR post drug administration (C57BL/6J mice [2]; s.c., both sexes, 30 min session): 5 to 10 min
- HTR ♀ Emax (95% CI) (C57BL/6J mice [2]; s.c., female mice, top of regression fit): 131 (118–146) HTR events
- HTR ♂ Emax (95% CI) (C57BL/6J mice [2]; s.c., male mice, top of regression fit): 105 (93–118) HTR events
- HTR ♂+♀ Emax (95% CI) (C57BL/6J mice [2]; s.c., pooled male and female mice): 111 (101–127) HTR events
